Data taken from patent US20120064528A1, “METHODS AND REAGENTS FOR QUANTIFYING NUCLEIC ACID FRAGMENTATION AND APOPTOSIS (QLM-PCR, CELL NUMBER QPCR AND APOQPCR)” (THE MACFARLANE BURNET INSTITUTE FOR MEDICAL RESEARCH AND …, priority 2010, published 2012).
“Also recorded” adds a separate entry of the source.

How the values were obtained:
Jurkat cells [1] = experiment: Genomic DNA fragmentation by agarose gel electrophoresis and trace intensity; format: cell-based, human; details: 5 hours
Description: Jurkat cells were grown to log phase in RF-10 tissue culture medium, pelleted and resuspended to 10^6 cells/ ml in new RF-10 at 37° C., and incubated at 37° C. with or without staurosporine (at 4 or 8 μM) for 5 and 6 hours. At the end-points, genomic DNA was purified using Qiagen DNA mini-prep columns following the manufacturer's recommendations, including RNase treatment and stored at −80° C. These columns quantitatively purify nucleic acid in the target size range of 200 by to 50 kbp. Nucleic acid for each end-point was compared by agarose gel electrophoresis. The generation of 100% apoptotic nucleic acid was defined as the complete absence of any typically high molecular weight genomic nucleic acid and complete conversion of this length of nucleic acid into apoptotic fragments, as determined by trace intensity using a GelDoc Imager (BioRad). […] The same experiment from cell culture to nucleic acid purification was repeated to test reproducibility. Nucleic acid from both experiments was electrophoresed together and trace intensities compared (FIG. 2C).

Jurkat cells [2] = experiment: Apoptosis measured by TUNEL with flow cytometry; format: cell-based, human
Description: To verify the definition of 100% apoptotic DNA, apoptosis was measured by TUNEL with flow cytometry from fractions of the same cultured cells used for genomic nucleic acid purification (above). At each time point and each staurosporine concentration, cells (6 ml) were collected, washed twice with PBS and resuspended in PBS to 2×10^7 cells/ml for duplicate 100 μl cells per micro-well. TUNEL procedure for cell suspensions followed the In Situ Cell Death Detection Kit, Flourescein (Roche, Mannheim, Germany) with the following modifications: after pelleting cells in wells, supernatant was aspirated and cells gently resuspended in 100 μl/well of fixation/permeabilisation solution (Cytofix/Cytoperm kit, BD Biosciences/Pharmingen, CA, USA). After incubation for 20 minutes at 4° C., cells were washed at this and subsequent wash stages 2 times at room temperature with perm/wash buffer (Cytofix/Cytoperm kit). After final washes, cells were resuspended in 250 μl/well 1% paraformaldehyde in PBS, stored at 4° C. in the dark for up to 12 hours and analyzed by flow cytometry at excitation 488 nm, detection 530 nm using a BD FACScan (BD Biosciences). At each measurement at least 10,000 events were sorted. Mean TUNEL positivity for cells incubated for 5 hours without staurosporine was 3%, while positivity for cells incubated for 5 hours with 8 μM staurosporine was 98.5% (FIG. 3).

CN[C@@H]1C[C@H]2O[C@@](C)([C@@H]1OC)n1c3ccccc3c3c4c(c5c6ccccc6n2c5c31)C(=O)NC4 [staurosporine]
unfragmented high molecular weight genomic nucleic acid remaining, by trace quantification (Jurkat cells [1]; 4 μM staurosporine, 37° C.): 1.8%
DNA fragmentation as determined by trace analysis (Jurkat cells [1]; 8 μM staurosporine, 37° C. (optimal conditions)): all DNA was fragmented; also recorded: unfragmented nucleic acid was not detected
Mean TUNEL positivity (Jurkat cells [2]; 8 μM staurosporine, 5 hours): 98.5%
apoptotic cells by TUNEL with flow cytometry (FACS) (Jurkat cells [2]; optimal test conditions): 99%
